# How the values were obtained:
# [1] = test system: Ad-sFlt-1 injected Hmox1−/− mice; experiment: Co-treatment rescue study of renal injury in non-pregnant Hmox1-/- mice injected with Ad-sFlt-1; format: in vivo; settings: for proteinuria (24 h urinary albumin:creatinine ratio) / urinary KIM-1 levels: high sFlt-1; for renal glomerulosclerosis and mesangiolysis (glomerular histology): high sFlt-1, nor-NOHA daily i.p., L-arginine 25 g/L in drinking water
# Procedure: Non-pregnant studies were carried out twelve-week-old Hmox1^−/− mice and Hmox1^+/+ mice. Animals were injected with 1×10^9 PFU of Ad-sFlt-1 or Ad-CMV (control) adenovirus by injection into the tail vein. Nine days after adenovirus administration, mice were individually placed in metabolic cages for 24 hours. Body weight, food and water intake, and urine volume were measured. Following urine measurements, blood sampling was undertaken on day 10, the animals were euthanized, and their kidneys and livers were collected for further analysis. Co-treatment rescue studies using arginase inhibitor and/or L-arginine supplementation were also undertaken in non-pregnant Hmox1^−/− mice and Hmox1^+/+ animals. Mice were injected intraperitoneally with nor-NOHA (Bachem, Bubendorf, Switzerland) daily. L-arginine (Sigma-Aldrich, St. Louis, MO) was given to the animals by supplementing the drinking water with 25 g/L one week before the Ad-sFlt-1 adenovirus injection and until the end of the study.
# (§1) Urinary albumin was determined using Albuwell-M kits (Exocell Inc, Philadelphia, PA). Enzyme-linked immunosorbent assay kits for human and murine sFlt-1, KIM-1, and PIGF were obtained from R&D Systems and performed according to the manufacturer's specifications.
# Human and murine placental tissues were prepared for immunohistochemistry as previously described. Immunohistochemistry was performed by using antibodies to Arginase-1, Ass1, Asl, and 3-nitrotyrosine. The following antibodies were used: (1) anti-arginase-1 antibody (1:50, Genetex); (2) anti-argininosuccinate synthase (1:100), Abcam); (3) anti-argininosuccinate lyase (1:100, Abcam) and (4) anti-3-Nitrotyrosine (1:100 dilution, Abcam). Sections from mouse kidneys or human placental biopsies were rehydrated, blocked with the use of normal serum, and incubated with primary antibody for 2 hours at room temperature. Visualization was performed by using a Vectastain ABC kit, with DAB. Slides were counterstained with hematoxylin. The staining was analysed by using a Nikon inverted microscope and Image Pro-Plus image analysis software.
# [2] = test system: Ad-sFlt-1 injected Hmox1+/− pregnant mice; experiment: Rescue of preeclampsia phenotype in timed pregnant Hmox1+/- mice injected with Ad-sFlt-1; format: in vivo; settings: for signs of preeclampsia overall: Ad-sFlt-1, agent given alone; for average fetal weight / fetal resorption rate / mean arterial blood pressure (MAP) / hypertension / proteinuria (24 h urinary albumin:creatinine ratio): Ad-sFlt-1, day 18 of gestation
# Procedure: Pregnant mice studies were carried out ten to twelve-week-old Hmox1^+/− mice and Hmox1^+/+ mice or wild-type C57/B16 mice. The first day of pregnancy (E0.5) was defined by the presence of a vaginal plug the following morning. On E10.5 (second trimester) pregnant mice were injected with 1×10^9 PFU of Ad-sFlt-1 or Ad-CMV (control) adenovirus by injection into the tail vein. For RUPP study, on day 13 of gestation, time pregnant C57/Bl6 mice were anesthetized. An incision was made down the midline of the body and the abdominal aorta was isolated. The vessel was then restricted with 7.0 suture tied around a blunt needle (approximate diameter of 1 mm^2) placed on the aorta. The needle was then removed. Right ovarian artery was restricted with 7.0 suture. The incisions were closed and the mice were allowed to recover for five days. For the low-dose sFlt-1 experiment, 1×10^8 PFU of adenovirus expressing sFlt-1 was used. On E17.5 mice were individually placed in metabolic cages for 24 hours and arterial blood pressure was measured at E18.5 as described previously (Wang et al. 2013). In brief, mice were anesthetized by using a ketamine/xylazine cocktail, and the carotid artery was isolated and cannulated with a Millar 1-French Mikro-Tip pressure catheter connected to a pressure transducer (ADInstruments Ltd, Oxford, UK). After 30 minutes of blood pressure stabilization, arterial pressure was recorded and averaged over an additional 10-minute period. Following measurements, blood sampling was undertaken, the animals were euthanized, and their kidneys, livers, and placentas were collected. The live fetuses and placentas were counted and weighed. All experimentation was conducted in accordance with the United Kingdom Animals (Scientific Procedures) Act, 1986 with the use of procedures approved by the University Ethical Review Committee.
# as §1
SMILES,proteinuria (24 h urinary albumin:creatinine ratio) [1],urinary KIM-1 levels [1],renal glomerulosclerosis and mesangiolysis (glomerular histology) [1],signs of preeclampsia overall [2],average fetal weight [2],fetal resorption rate [2],mean arterial blood pressure (MAP) / hypertension [2],proteinuria (24 h urinary albumin:creatinine ratio) [2]
N=C(N)NCCC[C@H](N)C(=O)O [L-arginine],improvements were absent,improvements were absent,improvements were absent,failed to abolish all signs of preeclampsia,no significant improvement,no significant improvement,significantly reduced,no significant improvements
"N=C(NO)NCC[C@H](N)C(=O)O [nor-NOHA, N-w-hydroxy-L-nor-arginine]",improvements were absent,improvements were absent,improvements were absent,failed to abolish all signs of preeclampsia,no significant effect,reduced,no significant effect,no significant improvements

# — US11980600B2, “Diagnostic assay and treatment for preeclampsia” (MIRZYME THERAPEUTICS LIMITED, priority 2015, dated 2024)
